Measurements published in patent publication US20220364990A1, “ANALYSIS OF OSCILLATORY FLUORESCENCE FROM BIOLOGICAL CELLS” (MOLECULAR DEVICES, LLC, priority 2019, published 2022).

Key:
[1] = system: Human iPSC-derived neural 3D co-cultures (microBrain 3D spheroids); experiment: Calcium oscillation assay in iPSC-derived neural 3D spheroids (microBrain 3D, FLIPR Calcium 6 Assay Kit, Peak Pro 2 analysis); assay type: cell-based; details: neural spheroid; for frequency of primary peaks relative to control: control DMSO; for peaks detected in calcium oscillation trace (primary / secondary peaks): recorded ten minutes after 30 minutes treatment
Excerpt: Human iPSC-derived neural 3D co-cultures (StemoniX® microBrain® 3D platform) have been developed as a high-throughput screening platform that more closely resembles the constitution of native human cortical brain tissue. Neural spheroid 3D co-cultures are a physiologically relevant co-culture of iPSC-derived, functionally-active cortical glutamatergic and GABAergic neurons co-differentiated and matured with astrocytes from the same donor. 3D neural spheroids contain a neural network enriched in synapses, creating a highly functional neuronal circuitry and display spontaneous synchronized, readily detectable calcium oscillations.
The neuronal cells in the microBrain® 3D spheroids generate spontaneous synchronized calcium oscillations. Fast kinetic fluorescence imaging by the FLIPR® Penta® system was employed to measure the patterns and frequencies of Ca^2+ oscillations of neuro-spheroids, as monitored by changes in intracellular Ca^2+ levels with the FLIPR® Calcium 6 Assay Kit. A set of known neuromodulators was tested, including agonists and antagonists of NMDA, GABA and AMPA receptors; kainic acid; and analgesic and anti-epileptic drugs. The fluorescence from each well of an entire 384-well plate was recorded simultaneously at a frequency of 2 Hz (0.5 second sampling interval) by high-speed imaging using the FLIPR® Penta® system.
Advanced analysis methods implemented in the ScreenWorks® Peak Pro™ 2 software module provide multi-parametric characterization of Ca^2+ flux oscillation patterns. This phenotypic assay creates readouts such as oscillation frequency, amplitude, peak width, peak rise and decay times, and peak amplitude/spacing irregularity. The effects of modulators of neuronal activity were evaluated by measuring changes in several measurements.
A set of over twenty compounds, including a number of known modulators of neuronal activity, was assayed at different time points and concentrations, and the EC50 values were calculated for compound effects. The time points included 0, 15, 30, 60, 90, and 120 minutes, and 24 hours.

[2] = system: human iPSC-derived cardiomyocytes; experiment: Calcium oscillation assay in iPSC-derived cardiomyocytes (FLIPR Penta, EarlyTox Cardiotoxicity Kit, Peak Pro 2 analysis); assay type: cell-based; details: for peaks detected in calcium oscillation trace (primary / secondary peaks): recorded two minutes after thirty minutes treatment; for spacing of primary peaks / primary peak prolongation: after thirty minutes treatment
Description: Development of biologically relevant and predictive cell-based assays for compound screening and toxicity assessment is a major challenge in drug discovery. The focus of this study was to establish high-throughput-compatible cardiotoxicity assays using human-induced pluripotent stem cell (iPSC)-derived cardiomyocytes. To assess the utility of human iPSC-derived cardiomyocytes as an in vitro pro-arrhythmia model, the concentration dependence and responses were evaluated for 28 drugs linked to low, intermediate, and high torsades de pointes (TdP) risk categories. […] This assay allows for the characterization of parameters such as beating frequency, amplitude, peak width, and rise and decay times. […] The iPSC-derived cardiomyocytes generate spontaneous synchronized calcium oscillations. High speed fluorescence imaging with the FLIPR® Penta® System was used to measure the patterns and frequencies of the Ca^2+ oscillations in cardiomyocytes as monitored by changes in intracellular Ca^2+ levels with the EarlyToxTM Cardiotoxicity Kit. A set of 28 known cardiotoxic compounds, plus several benchmark compounds and negative controls, were tested in the assay. iPSC-derived Cardiomyocytes: Cryopreserved human iPSC-derived cells from Cellular Dynamics International (CDI) iCell® Cardiomyocytes2 were used for experiments. Cells were thawed and plated at 20,000/well (96-well format) or 10,000/well into 384-well format plates (Corning) and incubated for 7 days in maintenance media. […] In addition, assay-ready 384-Well plates with cardiomyocytes1 were obtained from […], Inc. Plates were shipped pre-plated and allowed to recover after arrival for 2 days. […] The FLIPR® Penta® System equipped with a new high speed camera allows better resolution of calcium oscillation patterns in cardiomyocytes. The ScreenWorks® Peak ProTM 2 software allows complex event analysis and detailed characterization of patterns using more than 20 available pattern descriptors. The assay can be used for testing developing drugs and screening chemicals for potential cardiotoxic hazards.

[3] = 10 μM, after 30 minutes treatment
[4] = 0.3 μM, after 30 minutes treatment

Nc1ccncc1 [4-aminopyridine]
frequency of primary peaks relative to control ([1]; 30 μM, after 30 minutes treatment): increased relative to control
peaks detected in calcium oscillation trace (primary / secondary peaks) ([1]; 30 μM): Primary peaks 118 and secondary peaks 150 are detected

NCCCC(=O)O [GABA]
frequency of primary peaks relative to control [1, 3]: significantly lower frequency than control
peaks detected in calcium oscillation trace (primary / secondary peaks) ([1]; 10 μM): Only primary peaks 118 are detected

COc1ccc(CCN2CCC(Nc3nc4ccccc4n3Cc3ccc(F)cc3)CC2)cc1 [astemizole]
peaks detected in calcium oscillation trace (primary / secondary peaks) ([2]; 1 μM): No valid peaks are detected

NCC(CC(=O)O)c1ccc(Cl)cc1 (stereo not shown) [baclofen]
spacing and amplitude regularity of primary peaks [1, 3]: irregular spacing and amplitude
frequency of primary peaks relative to control [1, 3]: significantly lower frequency than control
peaks detected in calcium oscillation trace (primary / secondary peaks) ([1]; 10 μM): Only primary peaks 118 are detected

CN(CCOc1ccc(NS(C)(=O)=O)cc1)CCc1ccc(NS(C)(=O)=O)cc1 [dofetilide]
spacing of primary peaks ([2]; 10 μM): irregular spacing

CCCCCCCN(CC)CCCC(O)c1ccc(NS(C)(=O)=O)cc1 (stereo not shown) [ibutilide]
primary peak prolongation ([2]; 1 μM): prolongated
peaks detected in calcium oscillation trace (primary / secondary peaks) ([2]; 1 μM): Primary peaks 118 and secondary peaks 150 are present

C=C(C)[C@H]1CN[C@H](C(=O)O)[C@H]1CC(=O)O [kainic acid]
frequency of primary peaks relative to control ([1]; 1 μM, after 30 minutes treatment): increased relative to control
peaks detected in calcium oscillation trace (primary / secondary peaks) ([1]; 1 μM): Primary peaks 118 and numerous secondary peaks 150 are detected

C=C[C@H]1C[N@@]2CC[C@H]1C[C@@H]2[C@@H](O)c1ccnc2ccc(OC)cc12 [quinidine]
primary peak prolongation ([2]; 10 μM): prolongated
spacing of primary peaks ([2]; 10 μM): irregular spacing
peaks detected in calcium oscillation trace (primary / secondary peaks) ([2]; 10 μM): Primary peaks 118 and secondary peaks 150 are detected

CC(C)NCC(O)c1ccc(NS(C)(=O)=O)cc1 (stereo not shown) [sotalol]
primary peak prolongation ([2]; 10 μM): prolongated
spacing of primary peaks ([2]; 10 μM): irregular spacing
peaks detected in calcium oscillation trace (primary / secondary peaks) ([2]; 10 μM): Primary peaks 118 and secondary peaks 150 are detected

CC(C)[C@@H]1NC(=O)[C@H](C)OC(=O)[C@@H](C(C)C)NC(=O)[C@@H](C(C)C)OC(=O)[C@H](C(C)C)NC(=O)[C@H](C)OC(=O)[C@@H](C(C)C)NC(=O)[C@@H](C(C)C)OC(=O)[C@H](C(C)C)NC(=O)[C@H](C)OC(=O)[C@@H](C(C)C)NC(=O)[C@@H](C(C)C)OC1=O [valinomycin]
amplitude and spacing regularity of primary peaks [1, 4]: much more variable
frequency of primary peaks relative to control [1, 4]: much less than control
peaks detected in calcium oscillation trace (primary / secondary peaks) ([1]; 0.3 μM): Primary peaks 118 and secondary peaks 150 are detected
